Test results as given in the supplement of paper PMC10307832.

Experiments:
Experiment in all cases: relative viability (nuclei count vs DMSO), 5 days (fraction); higher = more cells survive
[1] = compound: C1COCCN1C2=NC(=NC3=C2OC4=C3C=CC=N4)C5=CC(=CC=C5)NC(=O)C6=CN=C(C=C6)N + CS(=O)(=O)N1CCN(Cc2cc3nc(-c4cccc5[nH]ncc45)nc(N4CCOCC4)c3s2)CC1 [Pictilisib] (partner 1 µM)
In short: (§1)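 Nuclei were stained with Hoechst during a one-step fixation (final 0.05% Triton X-100, 1% formaldehyde, 1 ug/ml Hoechst) carried out 5 days after dosing, then counted on 4× images. The cells, lung cancer lines in 1536-well plates, had been dosed by pin tool the day after seeding with one drug alone or a fixed anchor-drug dose plus five library-drug doses (not always all listed) in √10 steps. Relative viability is the nuclei count in treated wells divided by that in vehicle wells, and each value is the median of duplicate plates.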

[2] = compound: C1COCCN1C2=NC(=NC3=C2OC4=C3C=CC=N4)C5=CC(=CC=C5)NC(=O)C6=CN=C(C=C6)N + Nc1ncn([C@H]2C[C@H](O)[C@@H](CO)O2)c(=O)n1 [Decitabine] (partner 2 µM)
In short: as §1

SGI-1776 + Pictilisib = compound: CN1CCC(CNc2ccc3ncc(-c4cccc(OC(F)(F)F)c4)n3n2)CC1 [SGI-1776] + CS(=O)(=O)N1CCN(Cc2cc3nc(-c4cccc5[nH]ncc45)nc(N4CCOCC4)c3s2)CC1 [Pictilisib] (partner 1 µM)
In short: as §1

Entinostat + Pictilisib = compound: Nc1ccccc1NC(=O)c1ccc(CNC(=O)OCc2cccnc2)cc1 [Entinostat] + CS(=O)(=O)N1CCN(Cc2cc3nc(-c4cccc5[nH]ncc45)nc(N4CCOCC4)c3s2)CC1 [Pictilisib] (partner 1 µM)
In short: as §1

Cell Line | relative viability ([1]; first compound 0.02 µM) | relative viability ([1]; first compound 0.06325 µM) | relative viability ([1]; first compound 0.2 µM) | relative viability ([1]; first compound 0.6325 µM) | relative viability ([1]; first compound 2 µM) | relative viability ([2]; first compound 0.02 µM) | relative viability ([2]; first compound 0.06325 µM) | relative viability ([2]; first compound 0.2 µM) | relative viability ([2]; first compound 0.6325 µM) | relative viability ([2]; first compound 2 µM) | relative viability (SGI-1776 + Pictilisib; first compound 0.08 µM) | relative viability (SGI-1776 + Pictilisib; first compound 0.8 µM) | relative viability (SGI-1776 + Pictilisib; first compound 2.53 µM) | relative viability (SGI-1776 + Pictilisib; first compound 8 µM) | relative viability (Entinostat + Pictilisib; first compound 0.02 µM) | relative viability (Entinostat + Pictilisib; first compound 0.06325 µM) | relative viability (Entinostat + Pictilisib; first compound 0.2 µM) | relative viability (Entinostat + Pictilisib; first compound 0.6325 µM) | relative viability (Entinostat + Pictilisib; first compound 2 µM)
SK-LU-1 | 0.553 | 0.671 | 0.634 | 0.536 | 0.467 | 0.595 | 0.715 | 0.609 | 0.616 | 0.46 | 0.609 | 0.623 | 0.409 | 0.361 | 0.503 | 0.493 | 0.622 | 0.38 | 0.333
A549 | 0.628 | 0.577 | 0.397 | 0.391 | 0.24 |  | 0.362 | 0.265 | 0.238 | 0.256 | 0.566 | 0.513 | 0.392 | 0.267 | 0.551 | 0.555 | 0.451 | 0.364 | 0.2
NCI-H460 | 0.411 | 0.384 | 0.255 | 0.355 | 0.294 | 0.55 | 0.563 | 0.517 | 0.525 | 0.195 | 0.376 | 0.343 | 0.42 | 0.289 | 0.328 | 0.411 | 0.333 | 0.132 | 0.108
LCLC-97TM1 |  | 0.173 | 0.217 | 0.235 | 0.184 | 0.286 | 0.236 | 0.241 | 0.333 | 0.236 | 0.25 | 0.296 | 0.196 | 0.179 | 0.196 | 0.193 | 0.166 | 0.104 | 0.122
HCC-78 | 0.179 | 0.211 | 0.289 | 0.16 | 0.0668 | 0.69 | 0.78 | 0.671 | 0.961 | 0.777 | 0.27 | 0.231 | 0.199 | 0.164 | 0.212 | 0.194 | 0.178 | 0.108 | 0.128
NCI-H1975 | 0.276 | 0.309 | 0.278 | 0.273 | 0.257 | 0.347 | 0.396 | 0.37 | 0.381 | 0.371 | 0.382 | 0.311 | 0.246 | 0.203 | 0.206 | 0.245 | 0.228 | 0.151 | 0.139
